Each compound was assayed against T1, Human Factor D (Homo sapiens, UniProt P00746) (assay: Human Factor D Assay). Details: Human Factor D 80 nM, substrate Z-L-Lys-SBzl; Table 2; read-out: IC50 (Stars).
T1 construct: purified from human serum; purchased Complement Technology, Inc; host or cells: human serum (natural protein, not recombinant)
Type: biochemical
Procedure, shortened: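 Serum-purified human factor D (80 nM final) preincubated 5 min at room temperature with test compound in 50 mM Tris, 1M NaCl, pH 7.5. Z-L-Lys-SBzl substrate and DTNB then added, each at 100 μM final. IC50 from nonlinear regression of reaction rate against compound concentration.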

T1 sequence (P00746 26-253): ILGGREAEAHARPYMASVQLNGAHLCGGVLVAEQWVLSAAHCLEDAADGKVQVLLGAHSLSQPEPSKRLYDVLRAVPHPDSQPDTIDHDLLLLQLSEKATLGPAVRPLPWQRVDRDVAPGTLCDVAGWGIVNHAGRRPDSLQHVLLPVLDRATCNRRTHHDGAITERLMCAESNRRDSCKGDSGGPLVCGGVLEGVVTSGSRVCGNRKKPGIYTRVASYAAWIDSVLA

SMILES | IC50
CC(=O)c1nn(CC(=O)N2[C@H]3CC[C@H](C3)[C@H]2C(=O)Nc2nc(C(F)(F)F)ccc2C)c2c(C)cc(-c3cnc4cc(C)nn4c3)cc12 [Compound 223, (1S,3S,4R)-2-(2-(3-acetyl-7-methyl-5-(2-methylpyrazolo[1,5-a]pyrimidin-6-yl)-1H-indazol-1-yl)acetyl)-N-(3-methyl-6-(trifluoromethyl)pyridin-2-yl)-2-azabicyclo[2.2.1]heptane-3-carboxamide] | < 1 µM
CC(=O)c1nn(CC(=O)N2[C@H](C(=O)Nc3nc(C(F)(F)F)ccc3C)C[C@@]3(C)C[C@@H]23)c2c(C)cc(-c3cnc4cc(C)nn4c3)cc12 [Compound 224, (1R,3S,5R)-2-(2-(3-acetyl-7-methyl-5-(2-methylpyrazolo[1,5-a]pyrimidin-6-yl)-1H-indazol-1-yl)acetyl)-5-methyl-N-(3-methyl-6-(trifluoromethyl)pyridin-2-yl)-2-azabicyclo[3.1.0]hexane-3-carboxamide] | < 1 µM
CC(=O)c1cn(CC(=O)N2[C@H](C(=O)Nc3nc(C(F)(F)F)ccc3C)C[C@@]3(C)C[C@@H]23)c2c(C)cc(-c3cnc4cc(F)nn4c3)cc12 [Compound 225, (1R,3S,5R)-2-(2-(3-acetyl-5-(2-fluoropyrazolo[1,5-a]pyrimidin-6-yl)-7-methyl-1H-indol-1-yl)acetyl)-5-methyl-N-(3-methyl-6-(trifluoromethyl)pyridin-2-yl)-2-azabicyclo[3.1.0]hexane-3-carboxamide] | < 1 µM
CC(=O)c1cn(CC(=O)N2[C@H](C(=O)Nc3nc(C(F)(F)F)ccc3C)C[C@@]3(C)C[C@@H]23)c2c(C)cc(-c3cnc4cc(CO)nn4c3)cc12 [Compound 226, (1R,3S,5R)-2-(2-(3-acetyl-5-(2-(hydroxymethyl)pyrazolo[1,5-a]pyrimidin-6-yl)-7-methyl-1H-indol-1-yl)acetyl)-5-methyl-N-(3-methyl-6-(trifluoromethyl)pyridin-2-yl)-2-azabicyclo[3.1.0]hexane-3-carboxamide] | < 1 µM
CC(=O)c1nn(CC(=O)N2[C@H](C(=O)Nc3nc(C(F)(F)F)ccc3C)C[C@@]3(C)C[C@@H]23)c2c(C)cc(-c3cnc4cc(CO)nn4c3)cc12 [Compound 227, (1R,3S,5R)-2-(2-(3-acetyl-5-(2-(hydroxymethyl)pyrazolo[1,5-a]pyrimidin-6-yl)-7-methyl-1H-indazol-1-yl)acetyl)-5-methyl-N-(3-methyl-6-(trifluoromethyl)pyridin-2-yl)-2-azabicyclo[3.1.0]hexane-3-carboxamide] | < 1 µM
CC(=O)c1cn(CC(=O)N2[C@H](C(=O)Nc3nc(C(F)(F)F)ccc3C)C[C@@]3(C)C[C@@H]23)c2c(C)cc(-c3cnc4cc(CF)nn4c3)cc12 [Compound 228, (1R,3S,5R)-2-(2-(3-acetyl-5-(2-(fluoromethyl)pyrazolo[1,5-a]pyrimidin-6-yl)-7-methyl-1H-indol-1-yl)acetyl)-5-methyl-N-(3-methyl-6-(trifluoromethyl)pyridin-2-yl)-2-azabicyclo[3.1.0]hexane-3-carboxamide] | < 1 µM
COC[C@@]12C[C@@H](C(=O)Nc3nc(C(F)(F)F)ccc3C)N(C(=O)Cn3cc(C(C)=O)c4cc(-c5cnc(C)nc5)cc(C)c43)[C@@H]1C2 [Compound 229, (1R,3S,5S)-2-(2-(3-acetyl-7-methyl-5-(2-methylpyrimidin-5-yl)-1H-indol-1-yl)acetyl)-5-(methoxymethyl)-N-(3-methyl-6-(trifluoromethyl)pyridin-2-yl)-2-azabicyclo[3.1.0]hexane-3-carboxamide] | < 1 µM
CC(=O)c1cn(CC(=O)N2[C@H](C(=O)Nc3nc(C(F)(F)F)ccc3C)C[C@@]3(C)C[C@@H]23)c2cc(F)c(-c3cnc4cc(C)nn4c3)cc12 [Compound 230, (1R,3S,5R)-2-(2-(3-acetyl-6-fluoro-5-(2-methylpyrazolo[1,5-a]pyrimidin-6-yl)-1H-indol-1-yl)acetyl)-5-methyl-N-(3-methyl-6-(trifluoromethyl)pyridin-2-yl)-2-azabicyclo[3.1.0]hexane-3-carboxamide] | < 1 µM
CC(=O)c1cn(CC(=O)N2[C@H](C(=O)Nc3nc(C(F)(F)F)ccc3C)C[C@@]3(C)C[C@@H]23)c2c(C)cc(-c3cnc4c(O)c(C)nn4c3)cc12 [Compound 231, (1R,3S,5R)-2-(2-(3-acetyl-5-(3-hydroxy-2-methylpyrazolo[1,5-a]pyrimidin-6-yl)-7-methyl-1H-indol-1-yl)acetyl)-5-methyl-N-(3-methyl-6-(trifluoromethyl)pyridin-2-yl)-2-azabicyclo[3.1.0]hexane-3-carboxamide] | < 1 µM
CC(=O)c1nn(CC(=O)N2[C@H](C(=O)Nc3nc(C(F)(F)F)ccc3C)C[C@@]3(C)C[C@@H]23)c2c(C)cc(-c3cnc4c(O)c(C)nn4c3)cc12 [Compound 232, (1R,3S,5R)-2-(2-(3-acetyl-5-(3-hydroxy-2-methylpyrazolo[1,5-a]pyrimidin-6-yl)-7-methyl-1H-indazol-1-yl)acetyl)-5-methyl-N-(3-methyl-6-(trifluoromethyl)pyridin-2-yl)-2-azabicyclo[3.1.0]hexane-3-carboxamide] | < 1 µM
CC(=O)c1cn(CC(=O)N2[C@H](C(=O)Nc3nc(C(F)(F)F)ccc3Cl)C[C@@]3(C)C[C@@H]23)c2c(C)cc(-c3cnc(C)nc3)cc12 [Compound 233, (1R,3S,5R)-2-(2-(3-acetyl-7-methyl-5-(2-methylpyrimidin-5-yl)-1H-indol-1-yl)acetyl)-N-(3-chloro-6-(trifluoromethyl)pyridin-2-yl)-5-methyl-2-azabicyclo[3.1.0]hexane-3-carboxamide] | < 1 µM
CC(=O)c1cn(CC(=O)N2[C@H](C(=O)Nc3nc(C(F)(F)F)ccc3C)C[C@@]3(CF)C[C@@H]23)c2c(C)cc(-c3cnc(C)nc3)cc12 [Compound 234, (1R,3S,5S)-2-(2-(3-acetyl-7-methyl-5-(2-methylpyrimidin-5-yl)-1H-indol-1-yl)acetyl)-5-(fluoromethyl)-N-(3-methyl-6-(trifluoromethyl)pyridin-2-yl)-2-azabicyclo[3.1.0]hexane-3-carboxamide] | < 1 µM
CC(=O)c1cn(CC(=O)N2[C@H](C(=O)Nc3nccc(C(F)(F)F)n3)C[C@@]3(C)C[C@@H]23)c2c(C)cc(-c3cnc(C)nc3)cc12 [Compound 235, (1R,3S,5R)-2-(2-(3-acetyl-7-methyl-5-(2-methylpyrimidin-5-yl)-1H-indol-1-yl)acetyl)-5-methyl-N-(4-(trifluoromethyl)pyrimidin-2-yl)-2-azabicyclo[3.1.0]hexane-3-carboxamide] | < 1 µM
CC(=O)c1nn(CC(=O)N2[C@H](C(=O)Nc3nc(C(F)(F)F)ccc3C)C[C@@]3(C)C[C@@H]23)c2c(C)cc(-c3cnc(C)nc3)cc12 [Compound 236, (1R,3S,5R)-2-(2-(3-acetyl-7-methyl-5-(2-methylpyrimidin-5-yl)-1H-indazol-1-yl)acetyl)-5-methyl-N-(3-methyl-6-(trifluoromethyl)pyridin-2-yl)-2-azabicyclo[3.1.0]hexane-3-carboxamide] | < 1 µM
CC(=O)c1nn(CC(=O)N2[C@H](C(=O)Nc3nc(C(F)(F)F)ccc3C)C[C@@]3(C)C[C@@H]23)c2c(CF)cc(-c3cnc(C)nc3)cc12 [Compound 237, (1R,3S,5R)-2-(2-(3-acetyl-7-(fluoromethyl)-5-(2-methylpyrimidin-5-yl)-1H-indazol-1-yl)acetyl)-5-methyl-N-(3-methyl-6-(trifluoromethyl)pyridin-2-yl)-2-azabicyclo[3.1.0]hexane-3-carboxamide] | < 1 µM
COCc1cc(-c2cnc(C)nc2)cc2c(C(C)=O)cn(CC(=O)N3[C@H](C(=O)Nc4nc(C(F)(F)F)ccc4C)C[C@@]4(C)C[C@@H]34)c12 [Compound 238, (1R,3S,5R)-2-(2-(3-acetyl-7-(methoxymethyl)5-(2-methylpyrimidin-5-yl)-1H-indol-1-yl)acetyl)-5-methyl-N-(3-methyl-6-(trifluoromethyl)pyridin-2-yl)-2-azabicyclo[3.1.0]hexane-3-carboxamide] | < 1 µM
CC(=O)c1cn(CC(=O)N2[C@H](C(=O)Nc3nc(C(F)(F)F)ccc3C)C[C@@]3(C)C[C@@H]23)c2c(CF)cc(-c3cnc(C)nc3)cc12 [Compound 239, (1R,3S,5R)-2-(2-(3-acetyl-7-(fluoromethyl)-5-(2-methylpyrimidin-5-yl)-1H-indol-1-yl)acetyl)-5-methyl-N-(3-methyl-6-(trifluoromethyl)pyridin-2-yl)-2-azabicyclo[3.1.0]hexane-3-carboxamide] | < 1 µM
CC(=O)c1cn(CC(=O)N2[C@H](C(=O)Nc3nc(Br)ccc3C)C[C@@]3(C)C[C@@H]23)c2c(C)c(F)c(-c3cnc(C)nc3)cc12 [Compound 240, (1R,3S,5R)-2-(2-(3-acetyl-6-fluoro-7-methyl-5-(2-methylpyrimidin-5-yl)-1H-indol-1-yl)acetyl)-N-(6-bromo-3-methylpyridin-2-yl)-5-methyl-2-azabicyclo[3.1.0]hexane-3-carboxamide] | < 1 µM
